Key:
HeLa cells = assay: FACS staining of camptothecin-treated apoptotic HeLa cells; format: cell-based
Description: HeLa cells (5×10^5 in 10 cm plates) maintained in DMEM with 10% FBS were contacted with 5 μM camptothecin to induce apoptosis. Cell staining by FITC-labeled Annexin V (Abcam, Cambridge, Mass.) or Cy5.5-labeled chicken LDH (1 μL) prepared as described in Example 1, was measured by fluorescence-activated cell sorting (FACS) analysis (with cells in annexin binding buffer (Abcam)) 12 h, 24 h, and 48 h later. Untreated HeLa cells served as negative controls.
Staining by Annexin V is known to require the presence of calcium. […] HeLa cells treated with camptothecin to induce apoptosis as in Example 9 were stained with FITC-labeled Annexin V (Abcam, Cambridge, Mass.) or Cy5.5-labeled chicken LDH in calcium-containing Annexin buffer or in calcium-free PBS. Stained cells were analyzed by FACS analysis as in Example 9.
HeLa cells (5×10^5 in 10 cm plates) maintained in DMEM with 10% FBS were contacted with 5 μM camptothecin to induce apoptosis. Cell staining was done in the media: (i) annexin buffer, (ii) DMEM supplemented with 1% FBS; (iii) DMEM supplemented with 2% FBS; (iii) DMEM supplemented with 5% FBS; (iv) DMEM supplemented with 10% FBS. For cell staining FITC-labeled Annexin V (Abcam, Cambridge, Mass.) or Cy5.5-labeled chicken LDH (1 μL) prepared as described in Example 1, was used to for FACS analysis (cells in annexin binding buffer (Abcam)) 48 h later. Untreated HeLa cells served as negative controls. […]

apoptotic cells [1] = assay: Staining requirements (temperature, calcium) of cLDHB and Annexin V; format: cell-based
Description: To determine if cLDHB is actively transported into cells, staining was performed at room temperature and at 4° C.
A major limitation of Annexin V staining is the requirement for supra-physiological concentrations of calcium (Tait, J. F., D. F. Gibson, and C. Smith, Anal Biochem, 2004. 329: 112-9). To determine whether cLDHB staining required calcium, Annexin V and cLDHB staining was performed in PBS (without calcium or magnesium) or in Annexin Binding Buffer (with 2.5 mM calcium).

apoptotic cells [2] = assay: Homogeneous multiwell apoptosis assay in normal growth medium; format: cell-based; conditions: e.g., RPMI with 10% FBS, flow cytometry or High-Content Microscopy
[3] = test system: adherent and suspension cancer cell lines (e.g., HeLa, RS(4;11), THP-1, MDA-MB231); assay: Concordance of Annexin V and cLDHB staining across cancer cell lines; format: cell-based; conditions: apoptosis induced by camptothecin, doxorubicin, HDAC inhibitors
[4] = test system: non-transformed rat cardiomyocytes; assay: Concordance of staining in doxorubicin-treated cardiomyocytes; format: cell-based; conditions: apoptosis induced with doxorubicin
THP-1 cells = assay: Staining of THP-1 cells treated with HDAC inhibitor LAQ824; format: cell-based; conditions: THP-1, LAQ824 50 nM, 18 hrs
Description: To correlate cLDHB staining with other measures of apoptosis, a fluorescent probe that binds to activated caspases (pan-caspase-FLICA, Immunochemistry Tech) was used. THP-1 cells were treated with the HDAC inhibitor LAQ824 (50 nM, 18 hrs) to induce apoptosis.
Similarly, we asked whether the […] proteins performed comparably to purified recombinant LDH.

[5] = test system: Ku812-Luc+ (BCR-ABL+CML blast crisis) cells; assay: In vivo imaging of chemotherapy-induced apoptosis (AMN107); parameters: species or system mice; conditions: 20 μg probe after 3 doses of AMN107
Description: Subcutaneous tumors were established using Ku812-Luc+ (BCR-ABL+CML blast crisis) cells in NCr nude mice. When tumors were ˜1 cm, mice underwent bioluminescence imaging (BLI) to determine baseline tumor burden, followed by treatment with either AMN107 (nilotinib) at 100 mg/kg intraperitoneally (IP), or with vehicle. After 3 doses, animals were injected with 20 μg of LDH-Alexa750. Fluorescence imaging (FL) was performed 24 and 48 hrs after probe injection (day 4 and 5 of treatment) and BLI was repeated on day 5 of treatment (FIG. 9A).

hepatocyte apoptosis = assay: In vivo NIR imaging of fulminant hepatic failure (anti-Fas antibody); parameters: species or system mice; conditions: liver region; 10 μg probe; 25 hrs after probe injection
Description: This model was used to compare LDH to Annexin V for near infrared (NIR) imaging of apoptosis. Alexa750-NHS was conjugated to Annexin V (Biovision) and chicken LDHB (XpressBio) at a labeling ratio of 2:1 per mole of protein based on prior optimization. A total of 10 male NCr nude mice were injected with 5 μg of anti-Fas antibody (Jo2, Pharmingen), and 10 animals were injected with 5 μg of an isotype-matched control antibody. Two hours later, mice were injected with 10 μg of either LDH-Alexa750 or Annexin V-Alexa750. Mice underwent NIR fluorescence imaging (IVIS Spectrum, Caliper) 25 hrs after probe injection (FIG. 8A). After spectral unmixing and background subtraction (Living Images software package), regions of interest were used to quantify fluorescence localized to the liver region (FIG. 8A), as indicated with arrowheads.

Row | Substance | change of staining with increasing amounts of FBS (FACS) (HeLa cells; HeLa treated with camptothecin) | stability of staining after washing (HeLa cells; washed with 6 changes of PBS) | staining at room temperature versus 4° C. (apoptotic cells [1]) | staining in PBS (without calcium or magnesium) compared to Annexin Binding Buffer (2.5 mM calcium) (apoptotic cells [1]) | staining / quantification of apoptosis with probe added directly to normal growth medium (apoptotic cells [2]) | concordance in staining with Annexin V [3] | concordance in staining with Annexin V [4] | staining of live cells negative for FLICA staining (THP-1 cells) | NIR fluorescence signal from the tumors in AMN107-treated animals compared to vehicle-treated controls [5] [fold] | mean signal intensity (photons/sec/ROI) of anti-Fas antibody treated animals above IgG control antibody treated animals (hepatocyte apoptosis) [fold]
1 | cLDHB: chicken LDHB used as fluorescently labeled probe; fluorochrome not stated at the place | no significant changes | entirely stable | Identical results | identical under both conditions | apoptosis can be quantified | concordance in staining | Concordant staining | negative |  | 
2 | LDH-Alexa750: chicken LDHB (XpressBio) conjugated to Alexa750-NHS at a labeling ratio of 2:1 |  |  |  |  |  |  |  |  | > 4 | 4.2

Source: patent publication US8999661B2, “Compositions for detecting cell death and methods of use thereof” (Dana-Farber Cancer Institute, Inc., priority 2008, dated 2015)
